# Experiments:
# [1] = system: FFRP pot1216151; experiment: Gel filtration analysis of changes in assemblies of the FFRP induced by amino acids and metabolic intermediates; format: binding, Pyrococcus sp. OT3; details: for gel filtration peak that increased: FFRP monomer approximately 100 μM, at least 30 minutes at room temperature, UV 220 nm; for concluded effect on assembling of the protein: gel filtration
# Protocol: Changes in assemblies of the FFRP pot1216151 induced by interaction with amino acids and metabolic intermediates were analyzed in solution using gel filtration.
# Gel filtration was carried out at a flow rate 1 ml/min, using a matrix (Protein Pak 125, 7.8×300 mm, Waters) and a 50 mM Tris-HCl buffer (pH 7.0) containing 300 mM sodium chloride. Flow of the protein was monitored by measuring the UV absorbance at 220 nm (LC Module I plus system, Waters). The FFRP pot1216151 purified by method 2, i.e., the rigorous method, was dissolved in 50 mM Tris-HCl buffer (pH 7.0) containing 200 mM sodium chloride, and kept at −80° C. until it was diluted by 10-fold with a 50 mM Tris-HCl buffer (pH 7.0) containing 300 mM sodium chloride, and mixed with each potential ligand for at least 30 minutes at room temperature (about 25° C.). In the mixture, the monomer concentration of the FFRP was approximately 100 μM.
# [2] = system: FFRP (pot1216151); experiment: Changes in crystal structure (depolarization) of FFRP crystals soaked in amino acid solutions; format: binding, Pyrococcus sp. OT3; details: crystals soaked in solution of one amino acid, 10 mM
# Protocol: It has been known that the regularity inside a crystal might be affected, if the structure of the protein changes upon interaction with a ligand which is incorporated from outside the crystal, thereby depolarizing the crystal. Crystals of the FFRP (pot1216151) were soaked into solutions, each containing one of twenty amino acids at the same concentration 10 mM. […] With the other amino acids, no change was observed.
# [3] = target: E. coli Lrp (Escherichia coli, UniProt P0ACJ0); details: Marasco et al., 1994; cited from earlier work
# Chain of E. coli Lrp (P0ACJ0 2-164): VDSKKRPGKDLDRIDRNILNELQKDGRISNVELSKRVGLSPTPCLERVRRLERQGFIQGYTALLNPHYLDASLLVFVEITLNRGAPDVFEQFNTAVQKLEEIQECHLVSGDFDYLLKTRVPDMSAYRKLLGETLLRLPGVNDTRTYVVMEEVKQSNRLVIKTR
Compound,gel filtration peak that increased ([1]; amino acid 1 mM),concluded effect on assembling of the protein ([1]; amino acid 1 mM),change of the FFRP crystal (depolarization) on soaking [2],gel filtration peak that increased ([1]; metabolic intermediate 10 mM),concluded effect on assembling of the protein ([1]; metabolic intermediate 10 mM),effect of leucine on the FFRP assembly [3]
C[C@@H](O)[C@H](N)C(=O)O [threonine],the fourth peak increased,accelerate disassembling of the protein,,,,
CSCC[C@H](N)C(=O)O [methionine],the fourth peak increased,accelerate disassembling of the protein,the crystals depolarized after several hours,,,
O=C(O)CC(=O)C(=O)O [oxaloacetic acid],,,,the third peak increased,stabilizing intermediate assemblies,
CC(C)C[C@H](N)C(=O)O [leucine],the fourth peak increased,accelerate disassembling of the protein,the crystals depolarized after several hours,,,disassembling these FFRPs
C[C@H](N)C(=O)O [alanine],the fourth peak increased,accelerate disassembling of the protein,,,,
N=C(N)NCCC[C@H](N)C(=O)O [arginine],the fourth peak increased,accelerate disassembling of the protein,,,,
N[C@@H](Cc1ccccc1)C(=O)O [phenylalanine],the fourth peak increased,accelerate disassembling of the protein,,,,
CC(C)[C@H](N)C(=O)O [valine],the third peak increased,stabilizing intermediate assemblies,the crystals depolarized after several hours,,,
O=C(O)CC(O)C(=O)O (stereo not drawn) [malic acid],,,,the third peak increased,stabilizing intermediate assemblies,
CC[C@H](C)[C@H](N)C(=O)O [isoleucine],the second peak increased,accelerates assembling of the protein,the crystals depolarized after several hours,,,
CC(=O)C(=O)O [pyruvic acid],,,,no significant effect,,
O=C(O)C(O)COP(=O)(O)O (stereo not drawn) [3-phosphoglyceric acid],,,,no significant effect,,

# Source: patent US20050202522A1, “Method of screening for antimicrobial agents” (NATIONAL INSTITUTE OF ADVANCED INDUSTRIAL SCIENCE AND …, priority 2003, published 2005)
